What all share (test): NCI-60 cell line screen, 48 h
Experiment [1] deals with SR leukemia.
Experiment [2] deals with K-562 leukemia.
For experiment [3], the system named is OVCAR-8 ovarian.
The subject of experiment [4] is SF-295 CNS.
Experiment [5] relates to TK-10 renal.
Experiment [6] deals with U251 CNS.
Experiment [7] has as its system HCT-15 colon.
The subject of experiment [8] is SK-MEL-5 melanoma.
For experiment [9], the system named is MALME-3M melanoma.
For experiment [10], the system named is IGROV1 ovarian.

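Dose response: 5 concentrations. Exposure: 48 h. Format: 96-well plates. Endpoint: linear interpolation; highest concentration if not reached. Here, GI50 denotes the concentration required for 50% inhibition of growth. TGI is the concentration that stops growth completely.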

With `COC(=O)/C=C/C=C(c1ccccc1)c1ccccc1`, the GI50 in experiment [1] is 4.51 µM; in experiment [2] it was 4 µM; in experiment [3], 15 µM; in [4] it was 2.76 µM; in experiment [5] it was 20.3 µM; in experiment [6], 3.6 µM. Besides, the GI50 in [7] is 3.79 µM; in experiment [8], 3.43 µM; in experiment [9], 4.23 µM. Moreover, the TGI in experiment [1] is more than 100 µM; in experiment [2], more than 100 µM; in experiment [3], more than 100 µM; in experiment [4], 8.12 µM; in [5], more than 100 µM; in experiment [6] it was 29.3 µM. For the same compound, the TGI in [7] was determined as 42.1 µM; in [8], 13.8 µM; in experiment [9] it was 30.4 µM.
Take `CC(=O)NC(CCCNCc1ccccc1)C(=O)NCc1ccccc1` (centres undefined): the TGI in [2], in [3], in experiment [4], in [5], in [6] and in experiment [7] was more than 100 µM throughout. The TGI in experiment [10], in experiment [8] and in experiment [9] was more than 100 µM throughout.
With `Cc1sc(C(=O)Nc2cc(C(=O)NCCCN(C)C)n(C)c2)cc1NC(=O)CCCN1C(=O)c2cccc3cccc(c23)C1=O`, the GI50 in experiment [1], in experiment [2], in [4], in experiment [5], in [6] and in experiment [7] was more than 100 µM throughout. For the same compound, the GI50 was more than 100 µM in experiment [10], 38.2 µM in [8] and 26 µM in [9]. Moreover, the TGI in [1], in experiment [2], in [4], in experiment [5], in [6] and in experiment [7] was more than 100 µM throughout. For the same compound, the TGI in [10], in experiment [8] and in experiment [9] was more than 100 µM throughout.
Take `CCCN=Cc1cc(Cc2ccc(O)c(C=NCCC)c2)ccc1O`: the TGI was 4.71 µM in experiment [2]; 20.4 µM in [3]; 52.5 µM in experiment [4]; 57.4 µM in [5]; 9.22 µM in experiment [6]; 12.3 µM in [7]. In addition, the TGI was determined as 37.2 µM in [10], 17.2 µM in [8] and 50.5 µM in experiment [9].
`COC1(C(=O)N[C@@H](C)c2ccc(-n3cc(F)cn3)nc2)CCC(c2nc(C)cc(Nc3cc(C)[nH]n3)n2)CC1` (some centres undefined): the GI50 was 6.14 µM in experiment [1]; 3.27 µM in [2]; 3.74 µM in experiment [3]; 1.17 µM in experiment [4]; 1.96 µM in [5]; 1.25 µM in experiment [6]. For the same compound, the GI50 in experiment [7] is 2.93 µM; in [8], 3.18 µM; in experiment [9] it was 5.87 µM. In addition, the TGI in experiment [1] was more than 100 µM; in experiment [2], more than 100 µM; in experiment [3], 25.5 µM; in [4], 3.95 µM; in experiment [5], 8.97 µM; in experiment [6] it was 22.6 µM. In addition, the values for the TGI in [7], in experiment [8] and in experiment [9] were 13.3 µM, 10.4 µM and 21.7 µM, respectively.
In the case of `CC(C)(C)OC(=O)C#CC[C@H]1CCCC1/C=C/C(O)=C1/C(=O)NC(CCCNC(=O)OC(C)(C)C)C1=O` (some centres undefined), the TGI in [1] was more than 100 µM; in [2] it was 89.3 µM; in [3], 31.6 µM; in [4], more than 100 µM; in experiment [5] it was 84.5 µM; in experiment [6], 74.8 µM. The TGI in experiment [10] is more than 100 µM; in experiment [8], more than 100 µM; in [9], 57.6 µM.
Turning to `COC(=O)CCC(NC(=S)N/N=C(\C)c1nccs1)C(=O)OC` (centres undefined), the TGI in experiment [2], in experiment [3], in experiment [4], in experiment [5], in [6] and in experiment [7] was more than 100 µM each time. For the same compound, the TGI in experiment [10], in [8] and in [9] was more than 100 µM throughout.
On to `NC(=S)N/N=C(/CC(=O)c1ccccc1)C(=O)Nc1ccc(Cl)c(Cl)c1`, for which the TGI in experiment [2], in experiment [3], in [4], in experiment [5], in [6] and in experiment [7] was more than 100 µM throughout. The TGI in [10], in experiment [8] and in [9] was more than 100 µM throughout.
As for `Nc1cc2cccc[n+]2c2cc(Cl)ccc12`, the GI50 in experiment [1] was 2.33 µM; in experiment [2] it was 3.01 µM; in experiment [3], 16.8 µM; in [4] it was 23.1 µM; in experiment [5], 59.7 µM; in experiment [6], 4.56 µM. The results for the GI50 in experiment [10], in experiment [8] and in experiment [9] were 71.6 µM, 10.4 µM and 2.38 µM, respectively. Also, the TGI worked out at 16.2 µM in [1]; 22 µM in [2]; 57.9 µM in experiment [3]; 25.4 µM in experiment [6]; 23.2 µM in experiment [8]; 11.7 µM in experiment [9].
In the case of `CC1(C)SC2C(NC(=O)C(N)c3ccccc3)C(=O)N2C1C(=O)O` (centres undefined), the TGI in experiment [1], in [3], in experiment [4], in [5], in experiment [6] and in experiment [7] was more than 100 µM throughout. The TGI in experiment [10] and in [8] was more than 100 µM in each case.
Turning to `O=Cc1cn(C(=O)c2ccccc2)c2ccccc12`, the TGI in experiment [2], in experiment [3], in experiment [4], in experiment [5], in experiment [6] and in experiment [7] was more than 100 µM throughout. Moreover, the TGI in experiment [10], in experiment [8] and in experiment [9] was more than 100 µM in each case.
Consider `COc1cc2c(cc1OC)C(N(C)C)C(c1ccccc1)=C2Cl` (centres undefined), for which the TGI was 50.4 µM in [1]; more than 100 µM in [2]; 47.8 µM in experiment [3]; 49.7 µM in experiment [4]; more than 100 µM in experiment [5]; 30.3 µM in experiment [6]. Also, the TGI was found to be 34.1 µM in [7] and 47.5 µM in [10].

The values above are taken from PubChem BioAssay (NCI).
